Values quoted from earlier work in patent publication US20240207252A1, “AEROSOL-FORMING SUBSTRATE AND AEROSOL-GENERATING SYSTEM” (SHENZHEN FIRST UNION TECHNOLOGY CO., LTD., priority 2021, published 2024).

Conditions: single oral administration

Tmax: less than 1 h | t1/2: less than 1 h
Compound: COC(=O)[C@@H]1[C@H]2C[C@H]3c4[nH]c5ccccc5c4CCN3C[C@@H]2CC[C@@H]1O [yohimbine, methyl 17alpha-hydroxyyohimban-16alpha-carboxylate]
